Assays:
[1] = pH shift dissolution (precipitation) test; type: physicochemical
Protocol: The formulations described in the examples above were dissoluted in media comprising 500 ml 0.07N HCl (approximately pH 1.5) and sodium chloride (0.2% w/v) for one hour at 37° C. (paddle speed 100 rpm). A 5 ml sample was taken at 60 minutes and the media replaced.
10 ml of a 2.5M KH2PO4/16.72% (w/v) NaOH solution was then added to shift the pH to 6.5. 5ml samples were then removed with a plastic syringe at 2, 5, 15, 30, 45 and 60 minutes after pH adjustment and media replaced after every sampling time point. Each sample was centrifuged (14,000 rpm) at ambient temperature for 15 minutes and then analysed by HPLC using the following conditions:

[2] = pH-dependent aqueous solubility of the Agent; type: physicochemical; settings: free-base form

% Agent in solution at 2 mins after pH adjustment to pH 6.5 ([1]; 2 mins after shift from pH 1.5 to pH 6.5, HPLC of centrifuged sample): 6.5% | % Agent in solution at 5 mins after pH adjustment to pH 6.5 ([1]; 5 mins after shift from pH 1.5 to pH 6.5, HPLC of centrifuged sample): 6.9% | % Agent in solution after 60 mins in acidic media (~pH 1.5) ([1]; 500 ml 0.07N HCl, 0.2% w/v NaCl, 37° C., before pH shift, HPLC): 102.6% | solubility in aqueous media ([2]; above pH 7): practically insoluble | aqueous solvent required to dissolve 1 g of Agent ([2]; pH 6): ≥ 10000 mL
Structure (SMILES): COc1cc2ncnc(Nc3ccc(F)c(Cl)c3)c2cc1OCCCN1CCOCC1 [Agent, 4-(3′-chloro-4′-fluoroanilino)-7-methoxy-6-(3-morpholinopropoxy)quinazoline]

From patent publication US20050163835A1, “Pharmaceutical formulation of iressa comprising a water-soluble cellulose derivative” (AstraZeneca AB, priority 2002, published 2005)
